The values below come from publication PMC8243516, “Inhibition of lysosomal phospholipase A2 predicts drug-induced phospholipidosis” (Journal of Lipid Research, 2021).

Data set [1] deals with T1, recombinant mouse LPLA2 (PLA2G15) (Mus musculus, UniProt Q8VEB4).
T1 construct: purchased Proteos Inc. (Kalamazoo, MI)
T1 sequence (Q8VEB4 34-412): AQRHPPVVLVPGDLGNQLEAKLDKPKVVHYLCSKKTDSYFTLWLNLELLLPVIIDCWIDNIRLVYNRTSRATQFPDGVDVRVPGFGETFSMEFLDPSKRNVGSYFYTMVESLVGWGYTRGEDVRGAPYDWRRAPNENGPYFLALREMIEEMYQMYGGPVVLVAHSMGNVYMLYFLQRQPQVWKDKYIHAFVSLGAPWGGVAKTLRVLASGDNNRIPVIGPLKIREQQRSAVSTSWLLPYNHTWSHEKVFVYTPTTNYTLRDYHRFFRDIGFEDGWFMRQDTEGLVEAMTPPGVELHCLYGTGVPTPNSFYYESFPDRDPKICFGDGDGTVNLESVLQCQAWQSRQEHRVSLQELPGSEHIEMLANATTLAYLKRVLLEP
Briefly: Transacylase activity of LPLA2 (1-O-acyl-N-acetylsphingosine synthase, cell-free liposome assay). It is filed as biochemical. As to conditions: read-out: LPLA2 IC50.

The subject of data set [2] is MDCK cells.
Data set [3] deals with T2, LPLA2 (Mus musculus, UniProt Q8VEB4).
T2 construct: purchased Proteos Inc. (Kalamazoo, MI)
T2 sequence (Q8VEB4 34-412): T1 sequence (Q8VEB4 34-412)
Briefly: LPLA2 thermal stability measurement (SYPRO Orange Tm). It is filed as binding. As to conditions: N=3 ± SD.

The target of data set [4] is T2, LPLA2. Briefly: LPLA2 esterase assay with pNPB. The data set is classed as biochemical. Conditions: pNPB substrate, no liposomes. The procedure: pNPB was used to directly measure the activity of LPLA2. pNPB is a water-soluble substrate that can directly access the catalytic site in the absence of liposomes ([25]). A reaction mixture of pNPB (0.2 mM) and cationic amphiphilic compounds at varying concentrations in sodium citrate buffer (pH 4.5) was prepared and prewarmed to 37°C for 5 min in a total volume of 500 μl. The reaction was initiated by the addition of recombinant LPLA2 (5 μg). At predetermined times, 120 μl of the reaction mixture was transferred to a tube containing 120 μl of 0.2 M NaHCO3 and kept on ice. The cold reaction product was subsequently warmed to 37°C, and the absorbance of the reaction product, p-nitrophenoxide, was measured at 400 nm with a Beckman Du-640 spectrophotometer.

Data set [5] addresses T2, LPLA2. Briefly: LPLA2 transacylation activity toward p-NPB (1-O-butanoyl-N-acetylsphingosine formation). It is filed as biochemical. As to conditions: 250 nM fosinopril; LPLA2, N-acetylsphingosine and p-NPB as monodispersion.
The target of data set [6] is T3, LPLA2 binding to DOPC/sulfatide liposomes (Mus musculus, UniProt Q8VEB4).
T3 construct: purchased Proteos Inc. (Kalamazoo, MI)
T3 sequence (Q8VEB4 34-412): T1 sequence (Q8VEB4 34-412)
The experiment in a line: Liposome LPLA2 cosedimentation assay. Conditions: 150,000 g.

Data set [7] deals with MDCK cells. Briefly: LipidTOX red particle quantification by fluorescence microscopy. The data set is classed as cell-based.
The conditions of data set [8]: cited from earlier work.
The test system of data set [9] is MDCK cells. Briefly: Screening phospholipidosis assay (LipidTOX Red / NucBlue Live fluorescence ratio). Conditions: LipidTOX Red to NucBlue Live fluorescence ratio, 24 h, 15 μM.
Another data set relates to phospholipidosis. Conditions: phospholipidosis reported in vivo, species codes; Refs of Table 1; cited from earlier work.
[10] abbreviates: 1-O-acyl N-acetylsphingosine synthase activity, pH 4.5, DOPC/sulfatide liposomes.
Setting [11] is: LPLA2 dependent 1-O-acyl N-acetylsphingosine synthase activity.

Entries after “also recorded” stand apart in the source; their conditions may differ. Where two headings read alike, the source gives them in different places.

Regarding `Cc1ccc2c(Cl)cc(Cl)c(O)c2n1` [5,7 Dichloro-8-hydroxy-2-methyl quinolone], the IC50 in [1] (setting [10]) and in [1] (setting [11]) was 1180 µM throughout. The “Ratio (15 μM)” value in the data set on MDCK cells [2] was 0.29. In addition, the “(ΔTm)c-(ΔTm)d, difference in melting temperature of LPLA2 alone or in the presence of drug” value (“(ΔTm)c-(ΔTm)d, difference” for short) at LPLA2 [3] is 1.88 ± 0.9 °C.
Regarding `CC1(C)[C@@H](O)CC[C@]2(C)[C@H]3C(=O)C=C4[C@@H]5C[C@@](C)(C(=O)O)CC[C@]5(C)CC[C@@]4(C)[C@]3(C)CC[C@@H]12` [18 Beta-glycyrrhetinic acid], the concentration for half-maximal inhibition (IC50) (as a rule, the concentration at which inhibition is half-maximal) in data set [1] (setting [11]) stood at 2430 µM. The “Ratio (15 μM)” value with MDCK cells [2] was found to be 0.4. The “(ΔTm)c-(ΔTm)d, difference” value on LPLA2 [3] was found to be 1.88 ± 0.6 °C.
For `C[C@H]1[C@H]2CC[C@H]3[C@@H]4CC=C5C[C@@H](N(C)C)CC[C@]5(C)[C@H]4CC[C@]23CN1C` [Conessin], in that order: 31.3 µM, 1.08 and 0.20 ± 01 °C.
In the case of `CCC(=O)O[C@@H](O[P@](=O)(CCCCc1ccccc1)CC(=O)N1C[C@H](C2CCCCC2)C[C@H]1C(=O)O)C(C)C` [Fosinopril], the values for the half-maximal inhibitory concentration (IC50) in [1] (setting [10]), in data set [1] (setting [11]) and in [1] were 0.18 µM, 0.181 µM and 0.18 µM, respectively. On LPLA2 [4], the “Inhibition of soluble esterase activity of LPLA2” value was “no inhibition”. Also, the “Inhibition of 1-O-butanoyl-N-acetylsphingosine formation” value at LPLA2 [5] is “no inhibition”. Besides, the “Cosedimentation of liposomes and recombinant LPLA2” value in data set [6] is reported as “partially inhibited”. In the data set with MDCK cells [7] (325 nM), the Percent area result is given as “increases”. Moreover, in the data set with MDCK cells [7] (325 nM, 24 h), the “Increase in LipidTOX Red particle number versus controls” value is listed as about 20 fold. Also, the “LipidTOX Red staining” value in the data set with MDCK cells [7] (24 h, versus non-treated control) is on record as “significant increase”. In addition, the Cell number result with MDCK cells [7] (versus non-treated control) is listed as “No change”. For the same compound, in the data set with MDCK cells [7] (versus non-treated control), the “LipidTOX Red particle number (in words)” value is listed as “significant increase; also recorded: significantly increased”. Also, in the data set on MDCK cells [7] (versus non-treated control), the “Mean fluorescence intensity (MFI)” value is listed as “significant increase; also recorded: increases”. The “pKa (basic)” value in [8] (ref Pubchem and chEMBL database) is -4.4. The “Ratio (15 μM)” value with MDCK cells [9] amounted to 0.67. In addition, the “(ΔTm)c-(ΔTm)d, difference” value on LPLA2 [3] is -0.90 ± 0.1 °C.
In the case of `OC1(c2ccc(Cl)c(C(F)(F)F)c2)CCN(CCCC(c2ccc(F)cc2)c2ccc(F)cc2)CC1` [Penfluridol, 1-[4,4-bis(4-fluorophenyl)butyl]-4-[4-chloro-3-(trifluoromethyl)phenyl]piperidin-4-ol], the IC50 in data set [1] (setting [10]) was 9.09 µM. For the same compound, the “pKa (basic)” value in data set [8] (ref Pubchem and chEMBL databases) is given as 8.96. The “In Vivo PLD” value with phospholipidosis is recorded as “Yes”. The “Ratio (15 μM)” value in the data set with MDCK cells [9] worked out at 0.55. Besides, at LPLA2 [3], the “(ΔTm)c-(ΔTm)d, difference” value amounted to 0.11 ± 0.0 °C.
